Results: ChEMBL document CHEMBL5360568, “Synthesis and anti-Alzheimer potential of novel α-amino phosphonate derivatives and probing their molecular interaction mechanism with acetylcholinesterase” (Eur J Med Chem, 2023)
Calls of active or inactive are those of the source. The rule behind the calls is not given here.

Experiments:
[1] = Cytotoxicity against human SK-N-SH cells assessed as cell viability at 30 to 60 uM incubated for 24 hrs by MTT assay; format: toxicity, cell-based; details: dose 30-60 µM, read-out: Activity
Acetylcholinesterase [2] = target: T1, Acetylcholinesterase (Homo sapiens, UniProt P22303); assay: Inhibition of human erythrocyte AChE using acetylthiocholine iodide as substrate preincubated for 5 mins followed by substrate addition by DTNB based Ellman's method
Cholinesterase = Cholinesterase (Equus caballus, UniProt P81908); assay: Inhibition of equine serum BuChE using butyrylthiocholine iodide as substrate preincubated for 5 mins followed by substrate addition by DTNB based Ellman's method
Acetylcholinesterase [3] = target: T1, Acetylcholinesterase; assay: Binding affinity to AChE (unknown origin) assessed as gibbs free energy change at temperature of 298 K at 0.001 to 0.009 mM incubated for 5 mins by fluorescence quenching analysis; details: dose 0.001-0.009 mM
[4] = target: Acetylcholinesterase (Electrophorus electricus) (UniProt O42275); assay: Mixed type inhibition of electric eel AChE using acetylthiocholine iodide as substrate assessed as decrease in Vmax and increase in Km preincubated for 5 mins followed by substrate addition and measured after 5 mins by Ellman's method based double reciprocal Lineweaver-Burk plot analysis; details: time 10.0 min
SK-N-SH [5] = assay: Neuroprotective activity against H2O2 induced oxidative cell damage in human SK-N-SH cells assessed as increase in cell viability at 90 uM preincubated for 3 hrs followed by H2O2 stimulation for 2 hrs by MTT assay (Rvb= 40%); format: functional
[6] = target: Amyloid-beta precursor protein (Homo sapiens) (UniProt P05067); assay: Modulation of amyloid beta (1 to 42) (unknown origin) assembly assessed as morphological changes in amyloid beta (1 to 42) aggregates at 1 mM incubated for 3 days by FE-SEM image analysis relative to control; details: filed as modulator, time 3.0 day
Supercoiled DNA = assay: Induction of supercoiled pBR322 plasmid DNA (unknown origin) cleavage assessed as DNA nicking at 10 uM incubated for 2 hrs by Agarose gel electrophoresis analysis; format: nucleic-acid assay
[7] = Antioxidant activity assessed as ABTS radical scavenging activity incubated for 30 mins by spectrophotometric analysis; format: functional
Acetylcholinesterase [8] = target: T2, Acetylcholinesterase (Electrophorus electricus, UniProt O42275); assay: Mixed type inhibition of electric eel AChE using acetylthiocholine iodide as substrate assessed as inhibition constant of second plot of intercept preincubated for 5 mins followed by substrate addition and measured after 5 mins by Ellman's method based double reciprocal Lineweaver-Burk plot analysis
Acetylcholinesterase [9] = target: T1, Acetylcholinesterase; assay: Binding affinity to AChE (unknown origin) assessed as decrease in negative bands intensity towards the baseline at […] incubated for 5 mins by Circular dichroism analysis; details: dose lower 0.001 nM
[10] = Selectivity ratio, ratio of IC50 for inhibition of equine serum BuChE to IC50 for inhibition of electric eel AChE
Acetylcholinesterase [11] = target: T1, Acetylcholinesterase; assay: Binding affinity to AChE (unknown origin) assessed as static fluorescence quenching at pH 7.2 at 0.001 to 0.009 mM incubated for 5 mins by Stern-Volmer quenching plot based fluorescence spectroscopy; details: dose 0.001-0.009 mM
Acetylcholinesterase [12] = target: T2, Acetylcholinesterase; assay: Inhibition of electric eel AChE using acetylthiocholine iodide as substrate preincubated for 5 mins followed by substrate addition by DTNB based Ellman's method
SK-N-SH [13] = assay: Neuroprotective activity against H2O2 induced oxidative cell damage in human SK-N-SH cells assessed as increase in cell viability at 30 to 60 uM preincubated for 3 hrs followed by H2O2 stimulation for 2 hrs by MTT assay (Rvb= 40%); format: functional, cell-based; details: dose 30-60 µM
[14] = target: Amyloid-beta precursor protein (Homo sapiens) (UniProt P05067); assay: Modulation of amyloid beta (1 to 42) (unknown origin) self aggregation assessed as increase in fluorescence intensity at 0.03 to 0.1 uM incubated for 24 hrs by Thioflavin T fluorescence assay; details: filed as modulator, dose 0.03-0.1 µM
Acetylcholinesterase [15] = target: T1, Acetylcholinesterase; assay: Binding affinity to AChE (unknown origin) assessed as reduction in intrinsic fluorescence intensity at pH 7.2 at 0.001 to 0.009 mM incubated for 5 mins by fluorescence quenching analysis; details: dose 0.001-0.009 mM
Acetylcholinesterase [16] = target: T2, Acetylcholinesterase; assay: Mixed type inhibition of electric eel AChE using acetylthiocholine iodide as substrate assessed as inhibition constant of second plot of slope preincubated for 5 mins followed by substrate addition and measured after 5 mins by Ellman's method based double reciprocal Lineweaver-Burk plot analysis
DNA = assay: Induction of pBR322 plasmid DNA (unknown origin) damage assessed as protection against Fenton's reagent induced DNA (unknown origin) damage by observing disappearance of band at 20 to 80 uM incubated for 30 mins by Agarose gel electrophoresis analysis; format: nucleic-acid assay; details: dose 20-80 µM
[17] = Cytotoxicity against human SK-N-SH cells assessed as cell viability at 90 uM incubated for 24 hrs by MTT assay; format: toxicity, cell-based; details: read-out: Activity

T2 sequence (O42275 whole entry): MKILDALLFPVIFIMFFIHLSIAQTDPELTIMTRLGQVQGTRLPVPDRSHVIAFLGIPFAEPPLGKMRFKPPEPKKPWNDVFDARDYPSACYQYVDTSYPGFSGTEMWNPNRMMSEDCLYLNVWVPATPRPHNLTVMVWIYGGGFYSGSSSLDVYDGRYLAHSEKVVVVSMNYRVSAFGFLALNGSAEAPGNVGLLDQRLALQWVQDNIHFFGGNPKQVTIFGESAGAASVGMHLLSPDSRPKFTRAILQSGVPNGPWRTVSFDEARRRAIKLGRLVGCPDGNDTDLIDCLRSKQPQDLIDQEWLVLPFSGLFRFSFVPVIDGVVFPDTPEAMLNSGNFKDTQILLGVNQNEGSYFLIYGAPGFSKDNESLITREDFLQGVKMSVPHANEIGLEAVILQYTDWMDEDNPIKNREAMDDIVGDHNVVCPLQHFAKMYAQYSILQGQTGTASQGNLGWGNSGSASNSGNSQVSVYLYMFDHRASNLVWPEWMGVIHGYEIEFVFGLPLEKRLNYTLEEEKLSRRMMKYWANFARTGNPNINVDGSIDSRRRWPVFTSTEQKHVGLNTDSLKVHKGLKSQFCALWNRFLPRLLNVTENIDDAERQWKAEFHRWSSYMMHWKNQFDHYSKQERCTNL
Chain of Cholinesterase (P81908 whole entry): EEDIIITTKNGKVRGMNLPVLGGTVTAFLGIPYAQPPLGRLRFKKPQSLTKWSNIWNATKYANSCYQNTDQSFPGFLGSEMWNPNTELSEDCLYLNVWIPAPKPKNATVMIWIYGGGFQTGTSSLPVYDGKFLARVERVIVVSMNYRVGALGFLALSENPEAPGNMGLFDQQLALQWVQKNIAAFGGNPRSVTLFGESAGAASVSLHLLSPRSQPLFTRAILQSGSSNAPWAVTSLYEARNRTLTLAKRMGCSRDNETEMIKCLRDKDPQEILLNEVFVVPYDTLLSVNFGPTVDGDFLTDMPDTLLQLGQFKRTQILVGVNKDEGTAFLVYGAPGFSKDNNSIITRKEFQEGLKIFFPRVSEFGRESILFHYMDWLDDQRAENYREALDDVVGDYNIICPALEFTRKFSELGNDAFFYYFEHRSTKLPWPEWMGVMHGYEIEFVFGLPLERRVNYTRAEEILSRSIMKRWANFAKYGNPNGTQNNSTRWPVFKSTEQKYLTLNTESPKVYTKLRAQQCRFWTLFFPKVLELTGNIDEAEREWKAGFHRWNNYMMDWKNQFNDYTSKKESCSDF
Chain of Amyloid-beta precursor protein (Homo sapiens) (P05067 whole entry): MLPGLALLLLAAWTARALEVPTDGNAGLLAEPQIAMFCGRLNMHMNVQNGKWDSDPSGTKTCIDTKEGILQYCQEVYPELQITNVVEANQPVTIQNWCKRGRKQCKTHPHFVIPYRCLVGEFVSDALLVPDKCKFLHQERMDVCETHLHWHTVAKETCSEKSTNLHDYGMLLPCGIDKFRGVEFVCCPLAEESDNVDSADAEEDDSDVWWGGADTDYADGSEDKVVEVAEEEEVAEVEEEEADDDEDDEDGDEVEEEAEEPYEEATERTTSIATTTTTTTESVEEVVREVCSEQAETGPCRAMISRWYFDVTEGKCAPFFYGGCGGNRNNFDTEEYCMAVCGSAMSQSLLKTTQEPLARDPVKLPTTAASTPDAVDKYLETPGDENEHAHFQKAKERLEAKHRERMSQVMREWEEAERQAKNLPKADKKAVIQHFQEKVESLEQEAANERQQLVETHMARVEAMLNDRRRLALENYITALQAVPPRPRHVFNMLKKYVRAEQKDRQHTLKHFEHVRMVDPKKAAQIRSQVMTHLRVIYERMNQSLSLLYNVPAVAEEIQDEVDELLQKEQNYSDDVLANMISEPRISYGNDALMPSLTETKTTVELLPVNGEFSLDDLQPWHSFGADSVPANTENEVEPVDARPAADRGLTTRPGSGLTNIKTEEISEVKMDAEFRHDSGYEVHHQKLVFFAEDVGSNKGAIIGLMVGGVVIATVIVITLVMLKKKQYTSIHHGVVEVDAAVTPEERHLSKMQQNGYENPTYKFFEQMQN
T1 sequence (P22303 whole entry): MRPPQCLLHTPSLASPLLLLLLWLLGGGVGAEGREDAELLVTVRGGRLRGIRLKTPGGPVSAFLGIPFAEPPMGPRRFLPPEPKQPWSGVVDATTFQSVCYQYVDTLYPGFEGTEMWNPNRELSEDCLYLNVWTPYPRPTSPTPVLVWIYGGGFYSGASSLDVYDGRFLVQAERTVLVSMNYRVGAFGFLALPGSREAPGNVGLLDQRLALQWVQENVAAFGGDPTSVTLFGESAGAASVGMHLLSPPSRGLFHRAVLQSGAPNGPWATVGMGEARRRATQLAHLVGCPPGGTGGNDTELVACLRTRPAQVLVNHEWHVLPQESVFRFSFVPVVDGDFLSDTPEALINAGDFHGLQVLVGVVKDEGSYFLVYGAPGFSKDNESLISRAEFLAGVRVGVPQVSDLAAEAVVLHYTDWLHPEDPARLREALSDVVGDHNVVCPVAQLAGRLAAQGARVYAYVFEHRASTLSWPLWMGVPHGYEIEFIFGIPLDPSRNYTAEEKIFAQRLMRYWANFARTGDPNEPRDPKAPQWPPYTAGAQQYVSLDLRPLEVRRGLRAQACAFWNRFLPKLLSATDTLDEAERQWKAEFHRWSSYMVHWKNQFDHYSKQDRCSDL
Chain of Acetylcholinesterase (Electrophorus electricus) (O42275 24-633 limits assumed): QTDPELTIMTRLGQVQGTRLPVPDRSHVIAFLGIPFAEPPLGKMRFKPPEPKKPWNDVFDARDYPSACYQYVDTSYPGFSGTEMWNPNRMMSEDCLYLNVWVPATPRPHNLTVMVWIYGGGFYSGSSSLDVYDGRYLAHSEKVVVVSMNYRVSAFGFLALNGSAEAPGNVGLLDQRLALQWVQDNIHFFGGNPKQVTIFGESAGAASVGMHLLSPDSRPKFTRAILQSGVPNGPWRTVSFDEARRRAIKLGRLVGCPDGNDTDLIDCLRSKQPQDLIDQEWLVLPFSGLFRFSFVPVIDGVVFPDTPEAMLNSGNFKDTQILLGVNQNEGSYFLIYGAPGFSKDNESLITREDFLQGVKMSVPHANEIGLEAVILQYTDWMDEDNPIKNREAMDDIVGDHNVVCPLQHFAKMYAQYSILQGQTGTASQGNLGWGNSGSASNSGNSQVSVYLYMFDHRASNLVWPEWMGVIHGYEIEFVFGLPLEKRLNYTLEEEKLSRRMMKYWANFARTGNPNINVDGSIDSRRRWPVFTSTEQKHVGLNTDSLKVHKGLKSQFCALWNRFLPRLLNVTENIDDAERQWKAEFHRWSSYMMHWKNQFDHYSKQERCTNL

| Structure (SMILES) | IC50 (Acetylcholinesterase [2]) [µM] | IC50 (Cholinesterase) [µM] | IC50 [7] [µM] | IC50 (Acetylcholinesterase [12]) [µM] | further results |
| --- | --- | --- | --- | --- | --- |
| CCOP(=O)(OCC)C(Nc1ccc(C(=O)O)cc1)c1ccc(OCc2nc3ccccc3c(=O)n2-c2ccc(F)cc2)c(OC)c1 (centres undefined) | 1.16 | 20.2 | 30.1 | 0.289 | viability at 24 h, up to 60 µM [1]: > 90%; deltaG (Acetylcholinesterase [3]): -7.54 kcal/mol; inhibition [4]: Active; Activity (SK-N-SH [5]): 65%; Activity [6]: Active; Activity (Supercoiled DNA): inactive; Ki (Acetylcholinesterase [8]): 0.292 µM; Activity (Acetylcholinesterase [9]): Dose-Dependent Effect; Ratio IC50 [10]: 70.1; Activity (Acetylcholinesterase [11]): Active; Activity (SK-N-SH [13]): Active; Activity [14]: Active; Activity (Acetylcholinesterase [15]): Dose-Dependent Effect; Ki (Acetylcholinesterase [16]): 0.297 µM |
| CCOP(=O)(OCC)C(Nc1ccc([N+](=O)[O-])cc1)c1ccc(OCc2nc3ccccc3c(=O)n2-c2ccc(F)cc2)c(OC)c1 (centres undefined) | 1.78 | > 100 | 28 | 0.315 |  |
| CCOP(=O)(OCC)C(Nc1ccccc1O)c1ccc(OCc2nc3ccccc3c(=O)n2-c2ccc(F)cc2)c(OC)c1 (centres undefined) |  | > 100 | 41.2 | 0.558 |  |
| Cc1c(C)c2c(c(C)c1O)CCC(C)(C(=O)O)O2 (centres undefined) [TROLOX] |  |  | 25.1 |  |  |
| CCOP(=O)(OCC)C(Nc1cccc(O)c1)c1ccc(OCc2nc3ccccc3c(=O)n2-c2ccc(F)cc2)c(OC)c1 (centres undefined) | 4.34 | > 100 | 35.8 | 0.369 |  |
| CCOP(=O)(OCC)C(Nc1cccc(Cl)c1Cl)c1ccc(OCc2nc3ccccc3c(=O)n2-c2ccc(F)cc2)c(OC)c1 (centres undefined) | 2.55 | 23.3 | 29.3 | 0.306 | viability at 24 h, up to 60 µM [1]: > 90%; Activity (DNA): Active; deltaG (Acetylcholinesterase [3]): -6.94 kcal/mol; viability at 24 h, 90 µM [17]: 85%; Activity (SK-N-SH [5]): 65%; Activity [6]: Active; Activity (Supercoiled DNA): Active; Activity (Acetylcholinesterase [9]): Dose-Dependent Effect; Ratio IC50 [10]: 76; Activity (Acetylcholinesterase [11]): Active; Activity (SK-N-SH [13]): Active; Activity [14]: Active; Activity (Acetylcholinesterase [15]): Dose-Dependent Effect |
| CCOP(=O)(OCC)C(Nc1ccc(Br)cc1)c1ccc(OCc2nc3ccccc3c(=O)n2-c2ccc(F)cc2)c(OC)c1 (centres undefined) |  | > 100 | > 50 | 0.487 |  |
| CCOP(=O)(OCC)C(Nc1ccc(OC)cc1)c1ccc(OCc2nc3ccccc3c(=O)n2-c2ccc(F)cc2)c(OC)c1 (centres undefined) |  | > 100 | 29 | 0.431 |  |
| CCOP(=O)(OCC)C(Nc1ccccc1C(F)(F)F)c1ccc(OCc2nc3ccccc3c(=O)n2-c2ccc(F)cc2)c(OC)c1 (centres undefined) | 4.93 | > 100 | 36.5 | 0.341 |  |
| CCOP(=O)(OCC)C(Nc1ccc(Cl)cc1)c1ccc(OCc2nc3ccccc3c(=O)n2-c2ccc(F)cc2)c(OC)c1 (centres undefined) |  | > 100 | 33.2 | 0.639 |  |
| CCOP(=O)(OCC)C(Nc1ccccc1CC)c1ccc(OCc2nc3ccccc3c(=O)n2-c2ccc(F)cc2)c(OC)c1 (centres undefined) |  | 29.6 | > 50 | 0.532 | Ratio IC50 [10]: 55.7 |
| CCOP(=O)(OCC)C(Nc1ccccc1OC)c1ccc(OCc2nc3ccccc3c(=O)n2-c2ccc(F)cc2)c(OC)c1 (centres undefined) | 2.65 | 10.6 | 28.8 | 0.296 | viability at 24 h, up to 60 µM [1]: > 90%; deltaG (Acetylcholinesterase [3]): -6.88 kcal/mol; viability at 24 h, 90 µM [17]: 85%; Activity (SK-N-SH [5]): 65%; Activity [6]: Active; Activity (Supercoiled DNA): inactive; Activity (Acetylcholinesterase [9]): Dose-Dependent Effect; Activity (Acetylcholinesterase [11]): Active; Activity (SK-N-SH [13]): Active; Activity [14]: Active; Activity (Acetylcholinesterase [15]): Dose-Dependent Effect |
